Values of other authors in patent publication EP0238198A2, “Method of modifying the lipid structure function and expression of cell membranes and pharmaceutical compositions for use therein” (Habib, Nagy Adly, priority 1986, dated 1987).

Test system: hepatoma cell lines
Conditions: in vitro; cited from earlier work

In the case of `CCCCCCCCC1=C(CCCCCCCC(=O)O)C1` [sterculic acid], the growth inhibition is listed as “growth inhibition” and the saturation index is listed as “increase in their saturation index”.
